This note sets out measurements from patent US7807672B2, “Compounds that are ERK inhibitors” (Schering Corporation, priority 2006, dated 2010).

pIC50: −log10 of the molar value.

Chain of fully phosphorylated, active Mouse ERK2 protein (P63085 whole entry): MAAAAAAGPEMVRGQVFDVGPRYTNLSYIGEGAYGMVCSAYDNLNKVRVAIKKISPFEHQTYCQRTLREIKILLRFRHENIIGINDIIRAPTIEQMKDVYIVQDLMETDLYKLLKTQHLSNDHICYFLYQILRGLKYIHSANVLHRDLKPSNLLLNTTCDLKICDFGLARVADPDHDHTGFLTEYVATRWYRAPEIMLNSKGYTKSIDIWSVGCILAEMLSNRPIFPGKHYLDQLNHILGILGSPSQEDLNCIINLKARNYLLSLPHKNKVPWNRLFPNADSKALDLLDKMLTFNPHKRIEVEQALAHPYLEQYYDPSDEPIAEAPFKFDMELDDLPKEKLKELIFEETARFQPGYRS

For the assay, the target named is fully phosphorylated, active Mouse ERK2 protein (Mus musculus, UniProt P63085). Briefly: Active ERK2 assay (AERK2), IMAP format. Type of assay: biochemical. The following applies: activated ERK2, IMAP fluorescence polarization, 30 μM ATP. Here is the method:
14 μl of kinase buffer (10 mM Tris.HCl pH 7.2, 10 mM MgCl2, 0.01% Tween-20, 1 mM DTT) containing 0.4 ng unphosphorylated Mouse ERK2 protein was added to each well of a black 384-well assay plate. […] DMSO concentration during initial incubation is 6.7%. […] DMSO concentration during ERK activation was 4%. After one hour, reactions were terminated by addition of 60 μl IMAP detections beads in binding buffer (Molecular Devices). Binding was allowed to equilibrate for 30 minutes before reading the plate on an LJL Analyst Fluorescence Polarization plate reader.
Activated ERK2 activity was also determined in the IMAP assay format using the procedure outlined above. […] Reactions proceeded for 30 minutes before termination by addition of 60 μl IMAP detection beads in binding buffer. Plates were read as above after 30 minute binding equilibration.
Take `O=C(Nc1ccc(O)c(C(F)(F)F)c1)[C@@H]1CCN(CC(=O)N2CCN(c3ccc(-c4ncccn4)cc3)CC2)C1` [Example 1]: the pIC50 is 7.12.

On to `O=C(Nc1ccc(O)c(Cl)c1)[C@@H]1CCN(CC(=O)N2C[C@@H]3C[C@H]2CN3c2ccc(-c3ncccn3)cc2)C1` [Example 19], for which the pIC50 was 7.47.

Compound `CC(=O)c1cnc(-c2ccc(N3CCN(C(=O)CN4CC[C@@H](C(=O)Nc5ccc(O)c(Cl)c5)C4)CC3)cc2)nc1` [Example 20] had a pIC50 of 7.36.

Consider `C/C(=N\O)c1cnc(-c2ccc(N3CCN(C(=O)CN4CC[C@@H](C(=O)Nc5ccc(O)c(Cl)c5)C4)CC3)cc2)nc1` [Example 23], for which the pIC50 is 7.24.

`CO/N=C(\C)c1cnc(-c2ccc(N3CCN(C(=O)CN4CC[C@@H](C(=O)Nc5ccc(O)c(Cl)c5)C4)CC3)cc2)nc1` [Example 25] showed a pIC50 of 7.74.

`O=C(Nc1ccc(O)c(C2CC2)c1)[C@@H]1CCN(CC(=O)N2CCN(c3ccc(-c4ncccn4)cc3)CC2)C1` [Example 119] showed a pIC50 of 7.41.

As to `CC(C)c1cc(NC(=O)[C@@H]2CCN(CC(=O)N3C[C@@H]4C[C@H]3CN4c3ccc(-c4ncccn4)cc3)C2)ccc1O` [Example 196], the pIC50 is 7.42.

Compound `CC(C)c1cc(NC(=O)[C@@H]2CCN(CC(=O)N3C[C@@H]4C[C@H]3CN4c3ccc(-c4cnccn4)cc3)C2)ccc1O` [Example 197] gave a pIC50 of 7.40.

For the compound `O=C(Nc1ccc(O)c(-c2ccc(F)cc2)c1)[C@@H]1CCN(CC(=O)N2CCN(c3ccc(-c4ncccn4)cc3)CC2)C1` [Example 212], the pIC50 is 7.28.
